Experimental data published in patent US20210322582A1, “RADIOACTIVE IMIDAZOTHIADIAZOLE DERIVATIVE COMPOUND” (Nihon Medi-Physics Co., Ltd., priority 2018, published 2021).

What was measured:
Type in all cases: in vivo
[1] = tested on: HT-29 tumor and MDA-MB-231 tumor; assay: CA-IX selectivity of [^111In]ITDA1 in cancer-bearing mouse (HT-29 vs MDA-MB-231); settings: 24 hours from administration
Method: HT-29 cells (5×10^6 cells/mouse) and MDA-MB-231 cells (5×10^6 cells/mouse) were subcutaneously inoculated into the left shoulders of 5-week old male BALB/c nude mice, respectively. A saline solution (100 μL) in which [^111In]ITDA1 (37 kBq) had been dissolved was administered to each of the cancer-bearing mice (n=5) via the tail vein. The mice were slaughtered after the lapse of 24 hours from the administration, and the blood, transplanted tumor, and muscle were recovered from each of the mice. The weight of each organ was measured, and the amount of radioactivity in each organ was measured by using a gamma counter. The accumulation of radioactivity in each organ was expressed by % ID (injected dose)/g obtained by dividing the ratio of the amount of radioactivity of each organ to the administered amount of radioactivity by the organ weight.

HT-29 tumor = assay: Biodistribution of [^111In]ITDA2 in HT-29 tumor cancer-bearing mouse; settings: HT-29 tumor mouse
Method: (§1) HT-29 cells (5×10^6 cells/mouse) and MDA-MB-231 cells (1×10^7 cells/mouse) were subcutaneously inoculated into the left shoulders of 5-week old male BALB/c nude mice, respectively, and the mice were used when the tumor diameter reached 6 to 10 mm. A saline solution (100 μL) in which [^111In]ITDA2 (40 kBq) had been dissolved was administered to each of the HT-29 tumor or MDA-MB-231 tumor cancer-bearing mice (n=5) via the tail vein. The HT-29 tumor cancer-bearing mice were slaughtered after the lapse of 1, 4, 8, and 24 hours from the administration, the MDA-MB-231 tumor cancer-bearing mouse was slaughtered after the lapse of 24 hours from the administration, and the blood, spleen, pancreas, stomach, intestines, kidney, liver, heart, lungs, brain, tumor, and muscle were recovered from each of the mice. The weight of each organ was measured, and the amount of radioactivity in each organ was measured by using a gamma counter. The accumulation of radioactivity in each organ except for stomach was expressed by % injected dose/g organ obtained by dividing the ratio of the amount of radioactivity of each organ to the administered amount of radioactivity by the organ weight. The stomach was expressed by % injected dose.

MDA-MB-231 tumor = assay: Biodistribution of [^111In]ITDA2 in MDA-MB-231 tumor cancer-bearing mouse; settings: MDA-MB-231 tumor mouse, 24 hours
Method: as §1

[2] = tested on: MDA-MB-231-transplanted tumor; assay: Biodistribution of [^111In]ITDA3 in MDA-MB-231 cancer-bearing mouse; settings: MDA-MB-231 mouse, 24 hours after administration
Method: HT-29 cells and MDA-MB-231 cells (5×10^6 cells/mouse) were subcutaneously inoculated into the left shoulders of 5-week old male BALB/c nude mice, respectively. A saline solution (100 μL) in which[^111In]ITDA3 (40 kBq) had been dissolved was administered to each of the cancer-bearing mice (n=5) via the tail vein. The HT-29 cancer-bearing mice were slaughtered after the lapse of 1, 4, and 24 hours from the administration, the MDA-MB-231 cancer-bearing mouse was slaughtered after the lapse of 24 hours from the administration, and the blood, spleen, pancreas, stomach, intestines, kidney, liver, heart, lungs, brain, HT-29 or MDA-MB-231-transplanted tumor, and muscle were recovered from each of the mice. The weight of each organ was measured, and the amount of radioactivity in each organ was measured by using a gamma counter. The accumulation of radioactivity in each organ except for stomach was expressed by % ID (injected dose)/g obtained by dividing the ratio of the amount of radioactivity of each organ to the administered amount of radioactivity by the organ weight. The stomach was expressed by % ID (injected dose).

## NS(=O)(=O)c1nn2cc(-c3ccc(NC(=O)CN4CCN(CC(=O)O)CCN(CC(=O)O)CCN(CC(=O)O)CC4)cc3)nc2s1.[111In+3] [[^111In]ITDA1, [^111In]indium(III)2,2′,2″-(10-(2-oxo-2-((4-(2-sulfamoylimidazo[2,1-b][1,3,4]thiadiazol-6-yl)phenyl)amino)ethyl)-1,4,7,10-tetraazacyclododecan-1,4,7-triyl) triacetic acid]
[1]
  CA-IX selective tumor accumulation: confirmed
  Transplanted tumor/blood ratio, HT-29 vs MDA-MB-231: significant difference was similarly observed
  Transplanted tumor/muscle ratio, HT-29 vs MDA-MB-231: significant difference was similarly observed
[1]; Welch's t-test, 1% significance level
  Amount accumulated in the HT-29 tumor vs the MDA-MB-231 tumor: significant difference was observed

## NS(=O)(=O)c1nn2cc(-c3ccc(NC(=O)CN4CCN(CC(=O)O)CCN(CC(=O)Nc5ccc(-c6cn7nc(S(N)(=O)=O)sc7n6)cc5)CCN(CC(=O)O)CC4)cc3)nc2s1.[111In+3] [[^111In]ITDA2, [^111In]indium(III)2,2′-(4,10-bis(2-oxo-2-((4-(2-sulfamoylimidazo[2,1-b][1,3,4]thiadiazol-6-yl)phenyl)amino)ethyl)-1,4,7,10-tetraazacyclododecan-1,7-diyl) diacetic acid]
HT-29 tumor; 1 hour
  Biokinetics: Blood: 0.27 ± 0.03 % injected dose/g organ
  Biokinetics: Brain: 0.30 ± 0.04 % injected dose/g organ
  Biokinetics: Heart: 5.64 ± 1.01 % injected dose/g organ
  Biokinetics: Intestines: 11.24 ± 1.54 % injected dose/g organ
  Biokinetics: Kidney: 137 ± 11.1 % injected dose/g organ
  Biokinetics: Liver: 4.11 ± 0.54 % injected dose/g organ
  Biokinetics: Lungs: 6.10 ± 0.97 % injected dose/g organ
  Biokinetics: Muscle: 2.05 ± 0.61 % injected dose/g organ
  Biokinetics: Pancreas: 20.01 ± 6.77 % injected dose/g organ
  Biokinetics: Spleen: 0.40 ± 0.27 % injected dose/g organ
  Biokinetics: Stomach: 3.99 ± 0.49 % injected dose
  Biokinetics: Tumor: 2.11 ± 0.32 % injected dose/g organ
  Tumor/blood: 7.78 ± 0.95
  Tumor/muscle: 1.12 ± 0.45
HT-29 tumor; 4 hours
  Biokinetics: Blood: 0.18 ± 0.01 % injected dose/g organ
  Biokinetics: Brain: 0.30 ± 0.04 % injected dose/g organ
  Biokinetics: Heart: 2.81 ± 0.39 % injected dose/g organ
  Biokinetics: Intestines: 15.32 ± 1.51 % injected dose/g organ
  Biokinetics: Kidney: 143 ± 12.0 % injected dose/g organ
  Biokinetics: Liver: 4.87 ± 1.08 % injected dose/g organ
  Biokinetics: Lungs: 4.25 ± 0.76 % injected dose/g organ
  Biokinetics: Muscle: 2.00 ± 0.21 % injected dose/g organ
  Biokinetics: Pancreas: 20.88 ± 2.49 % injected dose/g organ
  Biokinetics: Spleen: 0.13 ± 0.10 % injected dose/g organ
  Biokinetics: Stomach: 5.09 ± 0.66 % injected dose
  Biokinetics: Tumor: 2.47 ± 0.30 % injected dose/g organ
  Tumor/blood: 13.85 ± 2.45
  Tumor/muscle: 1.24 ± 0.19
HT-29 tumor; 8 hours
  Biokinetics: Blood: 0.20 ± 0.01 % injected dose/g organ
  Biokinetics: Brain: 0.35 ± 0.05 % injected dose/g organ
  Biokinetics: Heart: 1.89 ± 0.35 % injected dose/g organ
  Biokinetics: Intestines: 15.40 ± 0.94 % injected dose/g organ
  Biokinetics: Kidney: 110 ± 13.7 % injected dose/g organ
  Biokinetics: Liver: 4.58 ± 0.76 % injected dose/g organ
  Biokinetics: Lungs: 2.87 ± 1.08 % injected dose/g organ
  Biokinetics: Muscle: 1.39 ± 0.20 % injected dose/g organ
  Biokinetics: Pancreas: 13.15 ± 4.17 % injected dose/g organ
  Biokinetics: Spleen: 0.32 ± 0.20 % injected dose/g organ
  Biokinetics: Stomach: 6.78 ± 0.95 % injected dose
  Biokinetics: Tumor: 3.10 ± 0.35 % injected dose/g organ
  Tumor/blood: 15.31 ± 1.69
  Tumor/muscle: 2.28 ± 0.39
HT-29 tumor; 24 hours
  Biokinetics: Blood: 0.26 ± 0.02 % injected dose/g organ
  Biokinetics: Brain: 0.37 ± 0.09 % injected dose/g organ
  Biokinetics: Heart: 1.58 ± 0.42 % injected dose/g organ
  Biokinetics: Intestines: 11.14 ± 2.06 % injected dose/g organ
  Biokinetics: Kidney: 76.4 ± 17.2 % injected dose/g organ
  Biokinetics: Liver: 3.50 ± 0.81 % injected dose/g organ
  Biokinetics: Lungs: 2.15 ± 0.49 % injected dose/g organ
  Biokinetics: Muscle: 1.00 ± 0.25 % injected dose/g organ
  Biokinetics: Pancreas: 7.23 ± 1.40 % injected dose/g organ
  Biokinetics: Spleen: 0.27 ± 0.13 % injected dose/g organ
  Biokinetics: Stomach: 9.33 ± 0.72 % injected dose
  Biokinetics: Tumor: 5.93 ± 0.88 % injected dose/g organ
  Tumor/blood: 22.63 ± 3.31
  Tumor/muscle: 6.18 ± 1.45
MDA-MB-231 tumor
  Biokinetics: Blood: 0.29 ± 0.04 % injected dose/g organ
  Biokinetics: Brain: 0.34 ± 0.07 % injected dose/g organ
  Biokinetics: Heart: 1.13 ± 0.19 % injected dose/g organ
  Biokinetics: Intestines: 9.15 ± 1.04 % injected dose/g organ
  Biokinetics: Kidney: 59.8 ± 4.04 % injected dose/g organ
  Biokinetics: Liver: 2.77 ± 0.45 % injected dose/g organ
  Biokinetics: Lungs: 1.70 ± 0.57 % injected dose/g organ
  Biokinetics: Muscle: 0.64 ± 0.06 % injected dose/g organ
  Biokinetics: Pancreas: 3.37 ± 0.28 % injected dose/g organ
  Biokinetics: Spleen: 0.27 ± 0.07 % injected dose/g organ
  Biokinetics: Stomach: 8.43 ± 1.08 % injected dose
  Biokinetics: Tumor: 1.56 ± 0.17 % injected dose/g organ
  Tumor/blood: 5.51 ± 0.78
  Tumor/muscle: 2.46 ± 0.39

## NS(=O)(=O)c1nn2cc(-c3ccc(NC(=O)CCC(C(=O)O)N4CCN(CC(=O)[O-])CCN(CC(=O)[O-])CCN(CC(=O)[O-])CC4)cc3)nc2s1.[111In+3] (stereo not shown) [[^111In]ITDA3]
[2]
  Accumulation of radioactivity: Blood: 0.06 ± 0.02 % ID/g
  Accumulation of radioactivity: Brain: 0.24 ± 0.04 % ID/g
  Accumulation of radioactivity: Heart: 1.24 ± 0.19 % ID/g
  Accumulation of radioactivity: Intestines: 6.66 ± 0.86 % ID/g
  Accumulation of radioactivity: Kidney: 49.65 ± 5.04 % ID/g
  Accumulation of radioactivity: Liver: 2.96 ± 0.64 % ID/g
  Accumulation of radioactivity: Lungs: 0.93 ± 0.18 % ID/g
  Accumulation of radioactivity: MDA-MB-231 tumor: 0.72 ± 0.27 % ID/g
  Accumulation of radioactivity: Muscle: 0.99 ± 0.26 % ID/g
  Accumulation of radioactivity: Pancreas: 2.00 ± 0.54 % ID/g
  Accumulation of radioactivity: Spleen: 0.12 ± 0.02 % ID/g
  Accumulation of radioactivity: Stomach: 5.49 ± 0.55 % ID
  Tumor/blood: 11.97 ± 6.08
  Tumor/muscle: 0.77 ± 0.32
